Data reported in patent US20250262263A1, “METHOD AND COMPOSITIONS FOR THE USE OF BOTANICAL EXTRACTS IN THE TREATMENT OF VIRAL INFECTIONS” (priority 2024, published 2025).

Test system: VACV
Assay type: cell-based, vaccinia virus
Conditions: 100 pfu VACV, 48 HPI

C=C(C)[C@@H]1CC[C@]2(C)CC[C@]3(C)[C@H](CC[C@@H]4[C@@]5(C)CC[C@H](O)C(C)(C)[C@@H]5CC[C@]43C)[C@@H]12 [lupeol]
antiviral activity (VACV plaques): did not show suitable antiviral activity
